{"source": "paper PMC3715890", "about": "“A Cyclic Peptide Inhibitor of HIF-1 Heterodimerization That Inhibits Hypoxia Signaling in Cancer Cells” (Journal of the American Chemical Society, 2013)", "molecular_target": "T1, His-HIF-1α1–350 with GST-HIF-1β1–474 (Homo sapiens, UniProt Q16665)", "T1 construct": "heterodimerization of His-HIF-1α1–350 with GST-HIF-1β1–474 analyzed by ELISA; made in house; host or cells: E. coli BL21(DE3)", "assay": "ELISA of HIF-1 dimerization", "assay_type": "biochemical", "settings": "pH 7.5, 30 min preincubation, room temperature", "source_text": "We next probed the effect of cyclo-CLLFVY on the interaction of HIF-1α with HIF-1β in vitro. […] Unfortunately, the positively charged Tat-tag of P1 is incompatible with EMSA (interferes with the bandshift of DNA). […] To determine the HIF-1-specificity of cyclo-CLLFVY, we assessed its ability to disrupt HIF-2 dimerization by ELISA. Recombinant His-HIF-2α1–351 was produced and purified, and shown to form functional heterodimers with GST-HIF-1β1–474 by EMSA (Figure S5B).\nHIF-1β1-474, *please note that isoform 3 of HIF-1β was used). The standard protocol for protein expression was followed. Briefly, a 1 % culture in LB was incubated at 37 °C with shaking until OD600 of 0.6 was reached. 0.1 mM IPTG was added and the liquid culture incubated with shaking at 18 °C overnight. Cell pellets were suspended in MHW buffer9 (approximately 4 ml buffer per 1 g cell pellet). Lysozyme (100 µg/ml) was added to the lysate and the solution was incubated with shaking for 20 min at 5 °C. […]\nglycerol) was added to individual wells of a Pierce Ni2+-coated 96-well plate (Thermo Scientific, catalogue no. […] The stated quantity of inhibitor (P1 or P2) was added as a solution in 100 µL of buffer to the desired wells, and the plate incubated at room temperature for 30 minutes. […]", "note": "“Also recorded” adds a separate entry of the source.", "data": [{"substance": "Tat-cyclo-CRLMVL (head to tail) [P2, cyclo-CRLMVL tagged with Tat peptide via a disulfide bond; used as negative control]", "values": [{"measurement": "effect on HIF-1 dimerization", "result": "does not disrupt HIF-1 dimerization; also recorded: had no effect on HIF-1 dimerization"}]}]}
